Assay results taken from article PMC11864979, “First-in-class ultralong-target-residence-time p38α inhibitors as a mitosis-targeted therapy for colorectal cancer” (Nature Cancer, 2025).
Like-named read-outs stand apart in the source and are kept apart here.

Assays:
Assay in all cases: selectivity profiling in a panel of 340 wild-type kinases (Reaction Biology Europe)
Type in all cases: binding
340 wild-type kinases [1] = target: T1, 340 wild-type kinases (Homo sapiens, UniProt Q16539)
T1 construct: purchased Reaction Biology Europe

340 wild-type kinases [2] = target: T2, 340 wild-type kinases (Homo sapiens, UniProt P35626)
T2 construct: purchased Reaction Biology Europe
T2 sequence (P35626 1-688): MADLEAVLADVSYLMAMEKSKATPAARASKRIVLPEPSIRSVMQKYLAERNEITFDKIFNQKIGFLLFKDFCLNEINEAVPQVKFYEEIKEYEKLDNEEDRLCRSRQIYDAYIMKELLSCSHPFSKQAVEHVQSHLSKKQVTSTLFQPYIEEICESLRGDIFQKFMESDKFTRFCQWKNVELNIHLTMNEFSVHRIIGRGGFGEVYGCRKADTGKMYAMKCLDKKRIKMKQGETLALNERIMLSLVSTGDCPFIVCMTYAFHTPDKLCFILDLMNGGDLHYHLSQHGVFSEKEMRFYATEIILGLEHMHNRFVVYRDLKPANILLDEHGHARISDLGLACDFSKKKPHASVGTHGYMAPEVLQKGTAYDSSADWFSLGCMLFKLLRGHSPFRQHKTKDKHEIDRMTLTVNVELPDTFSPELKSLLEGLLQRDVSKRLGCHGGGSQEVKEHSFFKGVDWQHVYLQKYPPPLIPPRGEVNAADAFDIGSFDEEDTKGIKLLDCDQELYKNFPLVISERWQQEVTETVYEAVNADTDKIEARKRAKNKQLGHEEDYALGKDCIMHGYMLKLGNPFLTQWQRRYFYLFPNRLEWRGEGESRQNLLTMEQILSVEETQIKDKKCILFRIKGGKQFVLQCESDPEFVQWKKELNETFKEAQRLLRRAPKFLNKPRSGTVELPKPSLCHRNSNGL

340 wild-type kinases [3] = target: T3, 340 wild-type kinases (Homo sapiens, UniProt O43353)
T3 construct: purchased Reaction Biology Europe

340 wild-type kinases [4] = target: T4, 340 wild-type kinases (Homo sapiens, UniProt Q15418)
T4 construct: purchased Reaction Biology Europe

340 wild-type kinases [5] = target: T5, 340 wild-type kinases (Homo sapiens, UniProt O60285)
T5 construct: purchased Reaction Biology Europe
T5 sequence (O60285 1-661): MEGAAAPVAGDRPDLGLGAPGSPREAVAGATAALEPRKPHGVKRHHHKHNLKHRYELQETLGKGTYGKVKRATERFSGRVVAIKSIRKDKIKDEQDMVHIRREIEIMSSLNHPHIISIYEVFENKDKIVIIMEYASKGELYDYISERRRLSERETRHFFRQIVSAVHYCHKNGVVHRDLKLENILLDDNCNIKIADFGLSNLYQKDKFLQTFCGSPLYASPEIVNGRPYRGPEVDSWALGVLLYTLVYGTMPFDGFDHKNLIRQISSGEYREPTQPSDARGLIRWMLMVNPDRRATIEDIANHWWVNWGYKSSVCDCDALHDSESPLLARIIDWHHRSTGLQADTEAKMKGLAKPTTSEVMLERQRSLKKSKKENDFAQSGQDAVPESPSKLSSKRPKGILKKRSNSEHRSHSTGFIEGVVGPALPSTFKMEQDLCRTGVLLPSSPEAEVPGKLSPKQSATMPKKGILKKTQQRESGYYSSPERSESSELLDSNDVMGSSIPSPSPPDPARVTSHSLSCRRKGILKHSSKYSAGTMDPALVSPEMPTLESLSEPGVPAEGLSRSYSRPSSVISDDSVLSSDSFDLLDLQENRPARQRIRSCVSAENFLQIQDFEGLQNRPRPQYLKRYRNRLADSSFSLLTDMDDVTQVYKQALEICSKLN

340 wild-type kinases [6] = target: T6, 340 wild-type kinases (Homo sapiens, UniProt Q9NQU5)
T6 construct: purchased Reaction Biology Europe

340 wild-type kinases [7] = target: T7, 340 wild-type kinases (Homo sapiens, UniProt O94806)
T7 construct: purchased Reaction Biology Europe
T7 sequence (O94806 1-890): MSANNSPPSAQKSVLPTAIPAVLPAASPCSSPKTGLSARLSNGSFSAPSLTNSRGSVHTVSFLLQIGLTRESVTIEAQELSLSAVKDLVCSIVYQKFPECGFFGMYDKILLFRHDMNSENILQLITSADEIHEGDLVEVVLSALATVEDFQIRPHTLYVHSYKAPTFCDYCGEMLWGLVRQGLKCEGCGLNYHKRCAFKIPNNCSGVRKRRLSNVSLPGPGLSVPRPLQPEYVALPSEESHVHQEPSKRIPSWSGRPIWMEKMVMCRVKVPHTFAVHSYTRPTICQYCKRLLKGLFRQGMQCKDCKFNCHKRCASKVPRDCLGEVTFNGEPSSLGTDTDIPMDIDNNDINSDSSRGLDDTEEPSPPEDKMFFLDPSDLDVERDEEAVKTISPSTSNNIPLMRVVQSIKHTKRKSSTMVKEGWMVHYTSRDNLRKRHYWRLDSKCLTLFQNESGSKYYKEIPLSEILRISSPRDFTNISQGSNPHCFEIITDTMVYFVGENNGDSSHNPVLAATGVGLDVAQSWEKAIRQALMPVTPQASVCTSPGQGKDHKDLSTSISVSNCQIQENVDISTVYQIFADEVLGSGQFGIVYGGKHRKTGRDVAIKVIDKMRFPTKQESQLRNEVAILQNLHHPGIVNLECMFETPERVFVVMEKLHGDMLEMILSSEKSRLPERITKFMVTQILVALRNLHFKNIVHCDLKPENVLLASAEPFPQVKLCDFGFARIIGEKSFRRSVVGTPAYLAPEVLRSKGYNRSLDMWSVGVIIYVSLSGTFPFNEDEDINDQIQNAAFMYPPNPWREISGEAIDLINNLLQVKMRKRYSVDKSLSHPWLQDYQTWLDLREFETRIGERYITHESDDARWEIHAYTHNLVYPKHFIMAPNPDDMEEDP

T3 sequence (O43353 whole entry): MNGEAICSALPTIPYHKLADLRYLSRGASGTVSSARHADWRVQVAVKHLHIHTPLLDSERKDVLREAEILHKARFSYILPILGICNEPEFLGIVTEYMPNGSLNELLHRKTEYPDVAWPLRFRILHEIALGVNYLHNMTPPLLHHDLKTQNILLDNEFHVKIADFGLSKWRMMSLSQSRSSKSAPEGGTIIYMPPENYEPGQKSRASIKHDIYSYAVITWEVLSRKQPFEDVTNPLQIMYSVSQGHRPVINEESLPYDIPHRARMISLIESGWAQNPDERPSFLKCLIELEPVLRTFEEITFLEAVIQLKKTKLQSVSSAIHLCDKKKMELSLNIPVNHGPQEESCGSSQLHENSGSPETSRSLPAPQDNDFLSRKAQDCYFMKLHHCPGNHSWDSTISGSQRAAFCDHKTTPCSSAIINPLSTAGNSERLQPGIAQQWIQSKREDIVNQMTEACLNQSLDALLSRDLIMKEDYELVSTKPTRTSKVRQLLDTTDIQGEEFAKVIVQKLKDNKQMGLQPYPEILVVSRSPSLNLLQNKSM
T4 sequence (Q15418 whole entry): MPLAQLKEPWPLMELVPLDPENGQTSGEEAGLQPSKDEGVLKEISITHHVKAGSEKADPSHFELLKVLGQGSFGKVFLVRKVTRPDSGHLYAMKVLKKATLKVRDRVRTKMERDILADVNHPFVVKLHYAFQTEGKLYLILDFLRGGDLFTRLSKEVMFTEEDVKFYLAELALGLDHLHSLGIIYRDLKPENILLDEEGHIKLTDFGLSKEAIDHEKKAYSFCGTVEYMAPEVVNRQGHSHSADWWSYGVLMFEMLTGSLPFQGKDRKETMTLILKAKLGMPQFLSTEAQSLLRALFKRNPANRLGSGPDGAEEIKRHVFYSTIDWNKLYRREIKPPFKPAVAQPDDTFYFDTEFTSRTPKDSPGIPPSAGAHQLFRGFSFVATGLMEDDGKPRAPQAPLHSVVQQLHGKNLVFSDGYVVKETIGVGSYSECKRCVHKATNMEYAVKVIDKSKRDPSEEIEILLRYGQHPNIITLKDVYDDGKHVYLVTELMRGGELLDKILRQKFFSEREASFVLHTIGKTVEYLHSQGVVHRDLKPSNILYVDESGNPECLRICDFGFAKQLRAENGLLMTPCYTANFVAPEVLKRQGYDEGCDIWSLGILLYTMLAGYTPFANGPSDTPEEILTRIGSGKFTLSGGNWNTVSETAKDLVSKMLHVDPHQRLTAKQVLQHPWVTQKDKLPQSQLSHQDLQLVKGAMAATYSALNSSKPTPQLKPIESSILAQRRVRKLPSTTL
T6 sequence (Q9NQU5 whole entry): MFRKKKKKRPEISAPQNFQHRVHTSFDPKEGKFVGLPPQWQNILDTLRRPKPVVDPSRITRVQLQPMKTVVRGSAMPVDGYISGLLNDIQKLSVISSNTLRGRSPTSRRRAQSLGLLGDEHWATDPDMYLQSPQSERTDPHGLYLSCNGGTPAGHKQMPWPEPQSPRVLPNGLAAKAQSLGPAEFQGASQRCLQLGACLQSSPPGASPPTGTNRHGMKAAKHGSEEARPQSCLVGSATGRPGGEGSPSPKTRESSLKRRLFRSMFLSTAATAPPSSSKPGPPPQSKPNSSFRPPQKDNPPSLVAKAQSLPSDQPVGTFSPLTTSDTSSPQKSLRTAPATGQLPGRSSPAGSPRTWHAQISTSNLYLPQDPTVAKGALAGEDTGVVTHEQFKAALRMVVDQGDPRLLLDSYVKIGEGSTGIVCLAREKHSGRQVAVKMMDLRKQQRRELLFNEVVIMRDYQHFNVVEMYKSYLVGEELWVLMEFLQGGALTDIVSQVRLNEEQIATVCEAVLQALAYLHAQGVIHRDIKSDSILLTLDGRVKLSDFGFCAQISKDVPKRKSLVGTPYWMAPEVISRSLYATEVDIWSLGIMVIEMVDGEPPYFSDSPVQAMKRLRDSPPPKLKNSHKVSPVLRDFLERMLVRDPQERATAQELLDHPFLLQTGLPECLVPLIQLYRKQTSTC
T1 sequence (Q16539 whole entry): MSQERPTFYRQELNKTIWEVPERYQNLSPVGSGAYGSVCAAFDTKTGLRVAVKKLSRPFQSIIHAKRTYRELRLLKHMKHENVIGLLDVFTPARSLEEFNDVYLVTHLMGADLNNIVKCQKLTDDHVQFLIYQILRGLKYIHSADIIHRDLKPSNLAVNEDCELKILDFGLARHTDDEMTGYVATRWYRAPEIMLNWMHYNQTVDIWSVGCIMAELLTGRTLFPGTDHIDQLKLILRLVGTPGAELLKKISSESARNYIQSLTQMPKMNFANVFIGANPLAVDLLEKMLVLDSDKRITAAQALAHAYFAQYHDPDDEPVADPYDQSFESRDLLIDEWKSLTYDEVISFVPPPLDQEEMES

## CNC(=O)c1ccc2c(c1)C(=O)c1ccc(Nc3ccc(F)c(NC(=O)C4CC4)c3)cc1CC2 [Compound 2015]
340 wild-type kinases [1]; 0.2 µM 2015, read-out: p38alpha residual activity
  remaining activity at 0.2 µM: 5.35%
340 wild-type kinases [1]; 1 µM 2015, read-out: p38alpha residual activity
  remaining activity at 1 µM: 1.8%
340 wild-type kinases [1]; p38alpha, 0.2 µM, read-out: residual activity
  remaining activity at 0.2 µM: 5.35%
340 wild-type kinases [1]; p38alpha, 1 µM, read-out: residual activity
  remaining activity at 1 µM: 1.8%
340 wild-type kinases [2]; 0.2 µM 2015, read-out: GRK3 residual activity
  remaining activity at 0.2 µM: 117%
340 wild-type kinases [2]; 1 µM 2015, read-out: GRK3 residual activity
  remaining activity at 1 µM: 99.7%
340 wild-type kinases [2]; GRK3, 0.2 µM, read-out: residual activity
  remaining activity at 0.2 µM: 117%
340 wild-type kinases [2]; GRK3, 1 µM, read-out: residual activity
  remaining activity at 1 µM: 99.7%
340 wild-type kinases [3]; 0.2 µM 2015, read-out: RIPK2 residual activity
  remaining activity at 0.2 µM: 73.7%
340 wild-type kinases [3]; 1 µM 2015, read-out: RIPK2 residual activity
  remaining activity at 1 µM: 120%
340 wild-type kinases [3]; RIPK2, 0.2 µM, read-out: residual activity
  remaining activity at 0.2 µM: 73.7%
340 wild-type kinases [3]; RIPK2, 1 µM, read-out: residual activity
  remaining activity at 1 µM: 120%
340 wild-type kinases [4]; 0.2 µM 2015, read-out: RPS6KA1 residual activity
  remaining activity at 0.2 µM: 100%
340 wild-type kinases [4]; 1 µM 2015, read-out: RPS6KA1 residual activity
  remaining activity at 1 µM: 94.3%
340 wild-type kinases [4]; RPS6KA1, 0.2 µM, read-out: residual activity
  remaining activity at 0.2 µM: 100%
340 wild-type kinases [4]; RPS6KA1, 1 µM, read-out: residual activity
  remaining activity at 1 µM: 94.3%
340 wild-type kinases [5]; 0.2 µM 2015, read-out: ARK5 residual activity
  remaining activity at 0.2 µM: 96.7%
340 wild-type kinases [5]; 1 µM 2015, read-out: ARK5 residual activity
  remaining activity at 1 µM: 98.5%
340 wild-type kinases [5]; ARK5, 0.2 µM, read-out: residual activity
  remaining activity at 0.2 µM: 96.7%
340 wild-type kinases [5]; ARK5, 1 µM, read-out: residual activity
  remaining activity at 1 µM: 98.5%
340 wild-type kinases [6]; 0.2 µM 2015, read-out: PAK6 residual activity
  remaining activity at 0.2 µM: 98%
340 wild-type kinases [6]; 1 µM 2015, read-out: PAK6 residual activity
  remaining activity at 1 µM: 89.3%
340 wild-type kinases [6]; PAK6, 0.2 µM, read-out: residual activity
  remaining activity at 0.2 µM: 98%
340 wild-type kinases [6]; PAK6, 1 µM, read-out: residual activity
  remaining activity at 1 µM: 89.3%
340 wild-type kinases [7]; 0.2 µM 2015, read-out: PKCnu residual activity
  remaining activity at 0.2 µM: 88.9%
340 wild-type kinases [7]; 1 µM 2015, read-out: PKCnu residual activity
  remaining activity at 1 µM: 96.9%
340 wild-type kinases [7]; PKCnu, 0.2 µM, read-out: residual activity
  remaining activity at 0.2 µM: 88.9%
340 wild-type kinases [7]; PKCnu, 1 µM, read-out: residual activity
  remaining activity at 1 µM: 96.9%
